{"source": "patent US9657003B2", "about": "“Androgen receptor modulating compounds” (ORION CORPORATION, priority 2009, dated 2017)"}
{"biological_target": "human AR (Homo sapiens (Human), UniProt P10275)", "sequence (P10275 whole entry)": "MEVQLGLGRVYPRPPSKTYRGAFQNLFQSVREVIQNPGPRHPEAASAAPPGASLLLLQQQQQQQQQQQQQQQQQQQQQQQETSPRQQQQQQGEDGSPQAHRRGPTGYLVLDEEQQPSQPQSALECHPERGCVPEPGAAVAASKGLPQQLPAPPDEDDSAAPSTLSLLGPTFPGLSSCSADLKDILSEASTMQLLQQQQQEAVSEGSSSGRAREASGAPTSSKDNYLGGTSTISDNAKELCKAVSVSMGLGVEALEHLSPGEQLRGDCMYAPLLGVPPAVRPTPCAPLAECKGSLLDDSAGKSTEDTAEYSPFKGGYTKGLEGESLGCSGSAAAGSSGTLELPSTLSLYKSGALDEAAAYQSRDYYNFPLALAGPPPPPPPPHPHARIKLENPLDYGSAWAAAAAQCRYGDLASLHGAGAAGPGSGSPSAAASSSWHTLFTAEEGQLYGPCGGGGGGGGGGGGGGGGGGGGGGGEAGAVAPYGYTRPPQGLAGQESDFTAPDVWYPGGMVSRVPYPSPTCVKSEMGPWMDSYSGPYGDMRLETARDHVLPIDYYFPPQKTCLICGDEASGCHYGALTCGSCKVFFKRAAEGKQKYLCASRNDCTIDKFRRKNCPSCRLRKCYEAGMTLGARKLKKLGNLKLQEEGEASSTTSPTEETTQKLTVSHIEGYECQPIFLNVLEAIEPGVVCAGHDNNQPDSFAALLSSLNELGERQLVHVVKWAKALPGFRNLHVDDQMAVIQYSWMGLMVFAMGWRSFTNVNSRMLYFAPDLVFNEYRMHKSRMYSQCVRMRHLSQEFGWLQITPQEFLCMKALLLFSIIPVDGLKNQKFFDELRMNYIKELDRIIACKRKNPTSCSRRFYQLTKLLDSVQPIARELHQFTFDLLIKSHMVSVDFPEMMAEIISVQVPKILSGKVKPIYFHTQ", "test": "Agonism in AR overexpressing hAR/HEK293 cells, reporter gene assay", "assay_type": "cell-based", "settings": "% of testosterone-induced AR activity at 10 μM concentration", "description": "AR agonism of the test compound in AR overexpressing hAR/HEK293 cells was measured as % of testosterone-induced AR activity at 10 μM concentration,\nAgonism of test compounds in AR overexpressing cells was measured by reporter gene assay in HEK293 cells stably transfected with an expression vector encoding full-length human AR and androgen responsive luciferase reporter gene construct. A clone expressing high levels of androgen receptor (5 times more than AR levels in AR-HEK293 cells) was selected to study agonism in AR overexpressing cells. To determine agonism, the cells were treated with increasing concentrations of the test compound. The final DMSO concentration was 1%. The test compounds were studied in triplicates and luciferase activity was determined as described above.", "units": {"Agonism in AR overexpressing cells (%)": "%"}}
{"smiles": "O=C(NCCc1ccc(-c2ccc(Cl)c(Cl)c2)o1)c1cc(C(=O)N2CCOCC2)n[nH]1", "note": "[Example 8, N-(2-(5-(3,4-dichlorophenyl)furan-2-yl)ethyl)-3-(morpholine-4-carbonyl)-1H-pyrazole-5-carboxamide]", "Agonism in AR overexpressing cells (%)": 0}
{"smiles": "Cc1cc(-c2ccn(C[C@H](C)NC(=O)c3cc(-c4ccco4)n[nH]3)n2)ccc1C#N", "note": "[Example 32, (S)—N-(1-(3-(4-cyano-3-methylphenyl)-1H-pyrazol-1-yl)propan-2-yl)-3-(furan-2-yl)-1H-pyrazole-5-carboxamide]", "Agonism in AR overexpressing cells (%)": 39}
{"smiles": "CC(=O)c1cc(C(=O)N[C@@H](C)Cn2ccc(-c3ccc(C#N)c(Cl)c3)n2)[nH]n1", "note": "[Example 34, (S)-3-acetyl-N-(1-(3-(3-chloro-4-cyanophenyl)-1H-pyrazol-1-yl)propan-2-yl)-1H-pyrazole-5-carboxamide]", "Agonism in AR overexpressing cells (%)": 39}
{"smiles": "N#Cc1ccc(-c2ccn(CCNC(=O)c3cc(-c4cccnc4)n[nH]3)n2)cc1C#N", "note": "[Example 52, N-(2-(3-(3,4-dicyanophenyl)-1H-pyrazol-1-yl)ethyl)-3-(pyridin-3-yl)-1H-pyrazole-5-carboxamide]", "Agonism in AR overexpressing cells (%)": 40}
{"smiles": "CC(O)c1cc(C(=O)N[C@@H](C)Cn2ccc(-c3ccc(C#N)c(Cl)c3)n2)[nH]n1", "note": "(stereo partly drawn) [Example 56, N—((S)-1-(3-(3-chloro-4-cyanophenyl)-1H-pyrazol-1-yl)-propan-2-yl)-3-(1-hydroxyethyl)-1H-pyrazole-5-carboxamide]", "Agonism in AR overexpressing cells (%)": 27}
{"smiles": "CCc1noc(C(=O)N[C@@H](C)Cn2ccc(-c3ccc(C#N)c(Cl)c3)n2)n1", "note": "[Example 91, (S)—N-(1-(3-(3-chloro-4-cyanophenyl)-1H-pyrazol-1-yl)propan-2-yl)-3-ethyl-1,2,4-oxadiazole-5-carboxamide]", "Agonism in AR overexpressing cells (%)": 18}
{"smiles": "Cc1nc(-c2cc(C(=O)N[C@@H](C)Cn3ccc(-c4ccc(C#N)c(Cl)c4)n3)n[nH]2)cs1", "note": "[Example 94, (S)—N-(1-(3-(3-chloro-4-cyanophenyl)-1H-pyrazol-1-yl)propan-2-yl)-5-(2-methylthiazol-4-yl)-1H-pyrazole-3-carboxamide]", "Agonism in AR overexpressing cells (%)": 18}
{"smiles": "Cc1noc(C(=O)N[C@@H](C)Cn2ccc(-c3ccc(C#N)c(Cl)c3)n2)n1", "note": "[Example 103, (S)—N-(1-(3-(3-chloro-4-cyanophenyl)-1H-pyrazol-1-yl)propan-2-yl)-3-methyl-1,2,4-oxadiazole-5-carboxamide]", "Agonism in AR overexpressing cells (%)": 19}
{"smiles": "CC(O)c1cc(C(=O)N[C@@H](C)Cn2ccc(-c3ccc(C#N)c(Cl)c3)n2)no1", "note": "(stereo partly drawn) [Example 124, N—((S)-1-(3-(3-chloro-4-cyanophenyl)-1H-pyrazol-1-yl)propan-2-yl)-5-(1-hydroxyethyl)isoxazole-3-carboxamide]", "Agonism in AR overexpressing cells (%)": 5}
{"smiles": "C[C@H](Cn1ccc(-c2ccc(C#N)c(Cl)c2)n1)NC(=O)c1csc(N2CCOCC2)n1", "note": "[Example 132, (R)—N-(1-(3-(3-chloro-4-cyanophenyl)-1H-pyrazol-1-yl)propan-2-yl)-2-morpholinothiazole-4-carboxamide]", "Agonism in AR overexpressing cells (%)": 21}
{"smiles": "Cc1c(-c2ccn(C[C@H](C)NC(=O)c3csc(C(C)O)n3)n2)ccc(C#N)c1Cl", "note": "(stereo partly drawn) [Example 186, N—((S)-1-(3-(3-chloro-4-cyano-2-methylphenyl)-1H-pyrazol-1-yl)propan-2-yl)-2-(1-hydroxyethyl)thiazole-4-carboxamide]", "Agonism in AR overexpressing cells (%)": ">20"}
{"smiles": "C[C@@H](Cn1ccc(-c2ccc(C#N)c(Cl)c2)n1)NC(=O)c1csc(-c2cn[nH]c2)n1", "note": "[Example 206, (S)—N-(1-(3-(3-chloro-4-cyanophenyl)-1H-pyrazol-1-yl)propan-2-yl)-2-(1H-pyrazol-4-yl)thiazole-4-carboxamide]", "Agonism in AR overexpressing cells (%)": ">20"}
{"smiles": "CC(=O)c1cc(C(=O)NC[C@H](C)n2ccc(-c3cc(F)c(C#N)c(F)c3)n2)[nH]n1", "note": "[Example 219, (S)-3-acetyl-N-(2-(3-(4-cyano-3,5-difluorophenyl)-1H-pyrazol-1-yl)propyl)-1H-pyrazole-5-carboxamide]", "Agonism in AR overexpressing cells (%)": 0}
{"smiles": "C[C@H](CNC(=O)c1csc(CC#N)n1)n1ccc(-c2cc(F)c(C#N)c(F)c2)n1", "note": "[Example 222, (R)—N-(2-(3-(4-cyano-3,5-difluorophenyl)-1H-pyrazol-1-yl)propyl)-2-(cyanomethyl)thiazole-4-carboxamide]", "Agonism in AR overexpressing cells (%)": 20}
{"smiles": "Cc1nc(C(=O)N[C@@H](C)Cn2ccc(-c3cc(F)c(C#N)c(Cl)c3)n2)c[nH]1", "note": "[Example 249, (S)—N-{1-[3-(3-Chloro-4-cyano-5-fluorophenyl)-1H-pyrazol-1-yl]propan-2-yl}-2-methyl-1H-imidazole-4-carboxamide]", "Agonism in AR overexpressing cells (%)": 34}
{"smiles": "C[C@@H](Cn1ccc(-c2cc(F)c(C#N)c(Cl)c2)n1)NC(=O)c1cn2cccnc2n1", "note": "[Example 324, (S)—N-(1-(3-(3-chloro-4-cyano-5-fluorophenyl)-1H-pyrazol-1-yl)propan-2-yl)imidazo[1,2-a]pyrimidine-2-carboxamide]", "Agonism in AR overexpressing cells (%)": 16}
{"smiles": "C[C@@H](Cn1ccc(-c2ccc(C#N)c(Cl)c2)n1)NC(=O)c1[nH]nc2c1COCC2", "note": "[Example 338, (S)—N-(1-(3-(3-chloro-4-cyanophenyl)-1H-pyrazol-1-yl)propan-2-yl)-2,4,6,7-tetrahydropyrano[4,3-c]pyrazole-3-carboxamide]", "Agonism in AR overexpressing cells (%)": 25}
{"system": "VCaP prostate cancer cell line", "test": "Inhibition of mibolerone-induced VCaP cell proliferation (WST-1)", "assay_type": "cell-based", "settings": "Homo sapiens, mibolerone-induced (usually 0.1 nM) proliferation, 4-5 days", "description": "The IC50 value of the test compound for inhibition of mibolerone-induced VCaP cell proliferation was measured.\nCell Proliferation Assays\nThe ability of test compounds to inhibit prostate, cancer cell growth was studied by measuring inhibition of cell proliferation using androgen-sensitive VCaP prostate cancer cell line. […] Cell proliferation was measured using WST-1 Cell Proliferation Assay (Roche).", "units": {"IC50": "nM"}}
{"smiles": "Cc1nc(C(=O)N[C@@H](C)Cn2ccc(-c3ccc(C#N)c(Cl)c3)n2)c[nH]1", "note": "[Example 248, (S)—N-{1-[3-(3-Chloro-4-cyanophenyl)-1H-pyrazol-1-yl]propan-2-yl}-2-methyl-1H-imidazole-4-carboxamide]", "IC50": 490}
